The values that follow come from US7029695B2, “Therapeutic compositions containing glutathione analogs” (Telik, Inc., priority 2001, dated 2006).

Experiment [1] deals with circulating neutrophil levels. Conditions: liposomal formulation of Example 4; 35 mg/kg i.v., 5 daily injections; normal male CD rats. From the text: Blood samples were taken for measurement of neutrophil levels daily.
Experiment [2] concerns fluorouracil-induced neutropenia. The note with it: liposomal formulation of Example 4; 35 mg/kg i.v., 8 daily injections after fluorouracil 125 mg/kg i.p.; male CD rats. As for the experimental part:
Male CD rats (250–300 g) were injected intraperitoneally with either the antineoplastic drug, fluorouracil (125 mg/kg) or an equivalent volume of its vehicle (saline). […] Rats originally injected with saline rather than fluorouracil received saline intravenously (n=7). Blood samples were taken for measurement of neutrophil levels prior to the fluorouracil and every 1 to 2 days thereafter for 14 days.

Regarding “γ-Glutamyl-S(benzyl)cysteinyl-R-phenyl glycine diethyl ester hydrochloride [Compound 9]”, in experiment [1], the circulating neutrophil levels result was “increased”. The “recovery from chemotherapy-induced neutropenia” value in experiment [2] is given as “accelerated recovery”.
